Experimental data from patent publication US20250388565A1, “ESTROGEN RECEPTOR ALPHA DEGRADERS AND METHODS OF USE THEREOF” (Relay Therapeutics, Inc., priority 2022, published 2025).

What follows are compounds tested against T1, ERα protein (HiBiT-tagged) in ESR1_HiBiT KI MCF7 cells (Homo sapiens, UniProt P03372) (assay: Nano Glo HiBiT Lytic Degradation Assay). Details: 6 hours with compound, 14-point dose response 1:3, bell-shape curve fit, half-maximal effect of first Hill model, read-out: MCF7 ESR1 HiBiT - (DC50).
T1 sequence (P03372 1-595): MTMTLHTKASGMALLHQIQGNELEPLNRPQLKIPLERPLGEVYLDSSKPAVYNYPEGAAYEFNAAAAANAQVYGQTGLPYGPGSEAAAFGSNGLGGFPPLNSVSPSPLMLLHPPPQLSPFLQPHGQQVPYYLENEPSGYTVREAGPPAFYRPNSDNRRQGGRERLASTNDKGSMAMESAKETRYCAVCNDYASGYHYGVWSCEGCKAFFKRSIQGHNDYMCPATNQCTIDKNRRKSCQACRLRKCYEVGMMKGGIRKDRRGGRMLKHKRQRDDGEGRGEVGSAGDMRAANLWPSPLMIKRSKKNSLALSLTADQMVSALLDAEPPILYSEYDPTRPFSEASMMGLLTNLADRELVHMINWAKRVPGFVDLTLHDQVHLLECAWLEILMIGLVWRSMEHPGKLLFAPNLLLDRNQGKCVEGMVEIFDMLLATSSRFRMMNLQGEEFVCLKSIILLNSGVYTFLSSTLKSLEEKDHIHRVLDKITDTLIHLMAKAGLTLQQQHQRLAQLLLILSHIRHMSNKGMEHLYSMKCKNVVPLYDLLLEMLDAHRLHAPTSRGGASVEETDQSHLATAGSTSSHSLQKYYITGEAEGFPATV
Assay type: cell-based
Method in brief: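 Lytic Nano-Glo HiBiT luminescence quantified ERα remaining after a 6 h, 37° C compound exposure of MCF7 cells carrying endogenous HiBiT-tagged ESR1. Dosing used 14 threefold dilutions from a 10 mM DMSO stock (0.1% DMSO final), run in duplicate. Signals were corrected for cell-free background and expressed relative to DMSO, and DC50 came from a bell-shaped curve fit (first Hill model half-maximum).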

SMILES | DC50 [nM]
COc1ccc2c(c1)CC[C@H](c1ccccc1)[C@@H]2c1ccc(N2CCC(CN3CCN(c4ccc5c(c4)CN([C@H]4CCC(=O)NC4=O)C5=O)CC3)CC2)cc1 [II-59] | ≥ 10000
O=C1CC[C@H](N2Cc3cc(N4CCN(CC5CCN(c6ccc([C@H]7c8ccc(O)cc8CO[C@H]7c7cccc(OC(F)(F)F)c7)cc6)CC5)CC4)ccc3C2=O)C(=O)N1 [Compound I-361, (S)-3-(5-(4-((1-(4-((3R,4S)-7-hydroxy-3-(3-(trifluoromethoxy)phenyl)isochroman-4-yl)phenyl)piperidin-4-yl)methyl)piperazin-1-yl)-1-oxoisoindolin-2-yl)piperidine-2,6-dione] | ≥ 10000
O=C1CCC(c2ccc(N3CC[C@H]4[C@@H]3CCN4CC3CCN(c4ccc([C@@H]5c6ccc(O)cc6CC[C@@H]5c5ccccc5)cc4)CC3)cc2)C(=O)N1 (stereo partly drawn) [Compound I-177, 3-(4-((3aS,6aS)-4-((1-(4-((1R,2S)-6-hydroxy-2-phenyl-1,2,3,4-tetrahydronaphthalen-1-yl)phenyl)piperidin-4-yl)methyl)hexahydropyrrolo[3,2-b]pyrrol-1 (2H)-yl)phenyl)piperidine-2,6-dione] | ≥ 10000
O=C1CC[C@H](N2Cc3cc(N4CCN(CC5CCN(c6ccc(C7c8ccc(O)cc8CCC7C7CCCCC7)cn6)CC5)CC4)ccc3C2=O)C(=O)N1 (stereo in doubt) [Compound I-154, (S)-3-(5-(4-((1-(5-((1S,2R)-2-cyclohexyl-6-hydroxy-1,2,3,4-tetrahydronaphthalen-1-yl)pyridin-2-yl)piperidin-4-yl)methyl)piperazin-1-yl)-1-oxoisoindolin-2-yl)piperidine-2,6-dione] | 3300
Cn1nc(N2CCC(=O)NC2=O)c2ccc(N3CCN(CC4CCN(c5ccc([C@@H]6c7ccc(O)cc7C(F)(F)C[C@@H]6c6ccccc6)cc5)CC4)CC3)cc21 [Compound I-300, 1-(6-(4-((1-(4-((1R,2S)-4,4-difluoro-6-hydroxy-2-phenyl-1,2,3,4-tetrahydronaphthalen-1-yl)phenyl)piperidin-4-yl)methyl)piperazin-1-yl)-1-methyl-1H-indazol-3-yl)dihydropyrimidine-2,4 (1H,3H)-dione] | 3300
O=C1CC[C@H](N2Cc3cc(N4CCN(CC5CCN(c6ccc([C@H]7c8ccc(O)cc8CO[C@H]7c7ccc8c(c7)CC8)cc6)CC5)CC4)ccc3C2=O)C(=O)N1 (single isomer, unassigned) [Compound I-364] | ≥ 10000
O=C1CC[C@H](N2Cc3cc(N4CCN(CC5CCN(c6ccc([C@H]7c8ccc(O)cc8C(F)(F)C[C@H]7C7CCCCC7)cc6)CC5)CC4)ccc3C2=O)C(=O)N1 [Compound I-98, (S)-3-(5-(4-((1-(4-((1S,2S)-2-cyclohexyl-4,4-difluoro-6-hydroxy-1,2,3,4-tetrahydronaphthalen-1-yl)phenyl)piperidin-4-yl)methyl)piperazin-1-yl)-1-oxoisoindolin-2-yl)piperidine-2,6-dione] | ≥ 10000
O=C1CCC(N2Cc3cc(C4CCN(CC5CCN(c6ccc([C@@H]7c8ccc(O)cc8CC[C@@H]7c7ccccc7)cc6)CC5)CC4)ccc3C2=O)C(=O)N1 (stereo partly shown) [II-105] | ≥ 10000
C[C@H]1O[C@@H](C2CCCCC2)[C@@H](c2ccc(N3CCC(CN4CCN(c5ccc6c(c5)CN([C@H]5CCC(=O)NC5=O)C6=O)CC4)CC3)cc2)c2ccc(O)cc21 [Compound I-251, (S)-3-(5-(4-((1-(4-((1R,3S,4S)-3-cyclohexyl-7-hydroxy-1-methylisochroman-4-yl)phenyl)piperidin-4-yl)methyl)piperazin-1-yl)-1-oxoisoindolin-2-yl)piperidine-2,6-dione] | 44
CC1(C)CC([C@@H]2CCc3cc(O)ccc3[C@@H]2c2ccc(N3CCC(CN4CCN(c5ccc6c(c5)CN([C@H]5CCC(=O)NC5=O)C6=O)CC4)CC3)cc2)CC(C)(C)C1 [Compound I-117, (35)-3-[5-[4-[[1-[4-[(1R,2R)-6-hydroxy-2-(3,3,5,5-tetramethylcyclohexyl)tetralin-1-yl]phenyl]-4-piperidyl]methyl]piperazin-1-yl]-1-oxo-isoindolin-2-yl]piperidine-2,6-dione] | ≥ 10000

Stronger by DC50, values ahead:

DC50 [nM] | SMILES
33 | Cc1ccccc1[C@@H]1CC(F)(F)c2cc(O)ccc2[C@@H]1c1ccc(N2CCC(CN3CCN(c4ccc5c(c4)CN([C@H]4CCC(=O)NC4=O)C5=O)CC3)CC2)cc1 [Compound I-323, (S)-3-(5-(4-((1-(4-((1S,2R)-4,4-difluoro-6-hydroxy-2-(o-tolyl)-1,2,3,4-tetrahydronaphthalen-1-yl)phenyl)piperidin-4-yl)methyl)piperazin-1-yl)-1-oxoisoindolin-2-yl)piperidine-2,6-dione]
17.3 | O=C1CCC(N2Cc3cc(N4CCN(CC5CCN(c6ccc([C@H]7c8ccc(O)cc8CC[C@H]7c7cccnc7)cc6)CC5)CC4)ccc3C2=O)C(=O)N1 (single isomer, unassigned) [Compound I-108]
0.42 | C[C@]1(c2ccccc2)CCc2cc(O)ccc2[C@H]1c1ccc(N2CCC(CN3CCN(c4ccc5c(c4)CN([C@H]4CCC(=O)NC4=O)C5=O)CC3)CC2)cc1 [Compound I-147, (S)-3-(5-(4-((1-(4-((1S,2S)-6-hydroxy-2-methyl-2-phenyl-1,2,3,4-tetrahydronaphthalen-1-yl)phenyl)piperidin-4-yl)methyl)piperazin-1-yl)-1-oxoisoindolin-2-yl)piperidine-2,6-dione]
0.08 | O=C1CCC(N2Cc3cc(N4CCC(CN5CCC(c6ccc([C@H]7c8ccc(O)cc8CC[C@H]7c7ccccc7)cc6)CC5)CC4)ccc3C2=O)C(=O)N1 (single isomer, unassigned) [II-61]
0.6 | O=C1CC[C@@H](N2Cc3cc(N4CCN(CC5CCN(c6ccc([C@@H]7c8ccc(O)cc8C(F)(F)C[C@@H]7c7ccccc7)cc6)CC5)CC4)ccc3C2=O)C(=O)N1 [Compound I-306, (R)-3-(5-(4-((1-(4-((1R,2S)-4,4-difluoro-6-hydroxy-2-phenyl-1,2,3,4-tetrahydronaphthalen-1-yl)phenyl)piperidin-4-yl)methyl)piperazin-1-yl)-1-oxoisoindolin-2-yl)piperidine-2,6-dione]
2 | CC(C)(O)[C@H]1CCc2cc(O)ccc2[C@H]1c1ccc(N2CCC(CN3CCN(c4ccc5c(c4)CN([C@H]4CCC(=O)NC4=O)C5=O)CC3)CC2)cc1 [Compound I-204, (S)-3-(5-(4-((1-(4-((1R,2S)-6-hydroxy-2-(2-hydroxypropan-2-yl)-1,2,3,4-tetrahydronaphthalen-1-yl)phenyl)piperidin-4-yl)methyl)piperazin-1-yl)-1-oxoisoindolin-2-yl)piperidine-2,6-dione]
0.28 | Cc1cc(N2CCC3(CCN(CC4CCN(c5ccc([C@@H]6c7ccc(O)cc7C(F)(F)C[C@@H]6c6ccccc6)cc5)CC4)C3)CC2)ccc1N1CCC(=O)NC1=O (single isomer, unassigned) [Compound I-294]
4 | O=C1CC[C@H](N2Cc3cc(N4CCN(CC5CCN(c6ccc([C@H]7c8ccc(O)cc8CO[C@]78CCc7ccccc78)cc6)CC5)CC4)ccc3C2=O)C(=O)N1 [Compound I-267, (S)-3-(5-(4-((1-(4-((1R,4′S)-7′-hydroxy-2,3-dihydrospiro[indene-1,3′-isochroman]-4′-yl)phenyl)piperidin-4-yl)methyl)piperazin-1-yl)-1-oxoisoindolin-2-yl)piperidine-2,6-dione]
0.048 | O=C1CC[C@H](N2Cc3cc(N4CCN(CC5CCN(c6ccc([C@H]7c8ccc(O)cc8CC[C@H]7c7ccc8c(c7)CC8)cc6)CC5)CC4)ccc3C2=O)C(=O)N1 (single isomer, unassigned) [Compound I-58]
2 | CC(C1CCN(c2ccc([C@@H]3c4ccc(O)cc4CC[C@@H]3c3ccccc3)cc2)CC1)N1CCN(c2ccc3c(c2)CN([C@H]2CCC(=O)NC2=O)C3=O)CC1 (single isomer, unassigned) [II-44]
19 | O=C1CC[C@H](N2Cc3cc(N4CCN(CC5CCN(c6ccc([C@H]7c8ccc(O)cc8C(F)(F)C[C@H]7c7ccccc7)c(F)c6)CC5)CC4)ccc3C2=O)C(=O)N1 [Compound I-307, (S)-3-(5-(4-((1-(4-((1R,2R)-4,4-difluoro-6-hydroxy-2-phenyl-1,2,3,4-tetrahydronaphthalen-1-yl)-3-fluorophenyl)piperidin-4-yl)methyl)piperazin-1-yl)-1-oxoisoindolin-2-yl)piperidine-2,6-dione]
4 | O=C1CC[C@H](N2Cc3cc(N4CCN(CC5CCN(c6ccc([C@H]7c8ccc(O)cc8CO[C@H]7C7CCC7)cc6)CC5)CC4)ccc3C2=O)C(=O)N1 [Compound I-244, (S)-3-(5-(4-((1-(4-((3S,4S)-3-cyclobutyl-7-hydroxyisochroman-4-yl)phenyl)piperidin-4-yl)methyl)piperazin-1-yl)-1-oxoisoindolin-2-yl)piperidine-2,6-dione]
